Assay results taken from patent US20130289520A1, “TARGETED AND LIGHT-ACTIVATED CYTOSOLIC DRUG DELIVERY” (CHILDREN'S HOSPITAL BOSTON, priority 2010, published 2013).

Columns and labels:
[1] = test system: LN-229 cells; assay: Light-activated cytosolic delivery of co-endocytosed dextran, NeutrAvidin and QD; format: cell-based, human; conditions: for cytosolic delivery of co-endocytosed macromolecule or particle after light stimulation of NPs: LN-229 cells, overnight co-endocytosis with NPs, TRITC-filtered light 30 to 120 s
Experimental: We then determined whether the NPs could liberate co-endocytosed macromolecules and nanoparticles. […] In this experiment, one set of LN-229 cells was incubated with NPs loaded with a releasable cargo dye (Alexa 546), while a second set was incubated with NPs carrying a dye covalently bound to their matrix during synthesis (Alexa633; so it could not be released). The two cells populations were then plated together, and incubated in the presence of dextran-FITC. […] The lower release kinetics of dextran in the case of the covalently labeled Alexa633-NPs may be explained by a lower excitation efficiency of this fluorophore through the TRITC filter set used for exposure.
LN-229 cells were biotinylated at room temperature with NHS-PEO4-biotin in D-PBS (500 μM, Pierce) supplemented with 10 mM glucose for 30 min, washed ×5 in D-PBS, and trypsinized in 0.01% trypsin/EDTA. Cells were collected with DMEM-10% FBS, centrifuged for 5 min at 1,000 rpm, and resuspended in a 50 μg/mL solution of dye-loaded NP-streptavidin in D-PBS-glucose. After 30 min, the cells were washed twice in D-PBS, resuspended in DMEM-10% FBS, and plated on 12 mm glass coverslips at a density of ˜10^5 cells/cm^2. Dextran-FITC (3 kDa, Sigma), NeutrAvidin-FITC (Pierce), or QD525-streptavidin conjugates (Invitrogen) were added to the cells at respective concentrations of 1 mg/mL, 5 μg/mL, and 2 nM. Cells were placed in a 37° C. incubator overnight with 5% CO2 to allow for coverslip attachment and simultaneous endocytosis of the surface-bound NP-streptavidin conjugates, as well as dextran, NeutrAvidin, or QDs present in the culture medium. After overnight endocytosis, cells were washed twice in D-PBS, and transferred to a live-cell imaging chamber for light stimulation and observation in D-PBS supplemented with 10 mM glucose.
For experiments involving two types of NPs, the orange pseudo-colored NPs were the post-synthesis Alexa 546 loaded NPs used in all other experiments, while the red pseudo-colored NPs were covalently bound to Alexa 633 incorporated during synthesis of the NPs (1 μL of MPTMS and 20 μL of a 10 mM stock solution of Alexa 633-maleimide were incubated overnight at room temperature, and premixed with the silicate precursors before injection into the reaction mixture. Unreacted dye was removed during the surfactant extraction process). The “orange” nanoparticles can release part of their cargo, while the dye is irreversibly bound to the silica matrix for the “red” NPs. After trypsinization, the biotinylated LN-229 cells were incubated separately with each type of NP, and remixed at 1:1 before plating and overnight incubation with dextran-FITC.

[2] = test system: LN-229 cells; assay: Light-induced cytosolic release of NP cargo after endocytosis; format: cell-based, human; conditions: co-incubated overnight with PEI-PEG coated NPs; green light
Experimental: Following overnight NP endocytosis, cells were exposed to green excitation light (520-550 nm, MWIG3/TRITC filter) for durations ranging from 3 s to 120 s. […] Confocal micrographs were analyzed using the software package Image-J. Average cell fluorescence was determined by manual contouring of cell borders. Data were then imported into Matlab (The Mathworks) for analysis and plotting purposes. The amount of dye released in the cell cytosol following light stimulation was taken as the difference in average cell fluorescence before and after light exposure.

Compound | cytosolic delivery of co-endocytosed macromolecule or particle after light stimulation of NPs [1] | cytosolic delivery of co-endocytosed macromolecule or particle after light stimulation of NPs ([1]; listed as QD525-streptavidin) | time to maximum cell fluorescence ([1]; following the end of 120 s light exposure) | cytosolic release of co-endocytosed compound after light exposure [2]
quantum-dot-streptavidin conjugates: QD525-streptavidin conjugates (Invitrogen) | remained clustered in the endo-lysosomal compartment | do not migrate into the cytosol | – | –
dextran-FITC | successfully mediated cytosolic delivery | – | – | –
NeutrAvidin: NeutrAvidin-FITC protein conjugate (Pierce) | could also be delivered to the cell cytosol | – | > 10 min | –
O=C(O)CN(CC(=O)O)Cc1cc2c(cc1O)Oc1cc(O)c(CN(CC(=O)O)CC(=O)O)cc1C21OC(=O)c2ccccc21 [calcein] | – | – | – | cytosolic release
